The record followed here is patent US20120231482A1, “METHOD, KIT OR DIAGNOSTIC FOR THE DETECTION OF REAGENTS WHICH INDUCE ALTERED CONTRACTILITY” (THE JOHNS HOPKINS UNIVERSITY, priority 2009, published 2012).

Each structure is given as a SMILES string.

The target in assay [1] is T1, tropomyosin (Rattus norvegicus, UniProt P04692).
T1 construct: Rat myofibrillar preparations, as described in [7], were obtained from frozen ventricles (Pel Freez Biologicals); tissue Pel Freez Biologicals; host or cells: myofibrils from frozen rat ventricles
The experiment in a line: Gel shift assay, reducing/non-reducing western blot of cardiac myofibrils. The assay is classed as biochemical. As to conditions: non-reducing; lost with 5 mM DTT. On the procedure: FIG. 4. Validation and characterizations of HNO modifications. 1 μg of rat cardiac myofibrils treated with HNO donors or control compounds were separated under reducing or nonreducing conditions and western blots probed for candidate proteins tropomyosin, actin, myosin heavy chain, myosin light chain 1 (n=4). […] Silver stained gel analysis indicated a protein band with […] gel mobility that was lost with DTT.
FIG. 5. Evaluation of the interaction between actin and tropomyosin with NCA treatment. Purified rabbit skeletal tropomyosin (0.03 μg) and isolated rat cardiac myofibrils (1 μg) were treated with NCA or AS and evaluated by 1D non-reducing western blot probing for tropomyosin (A) and actin (B) (n=3). […] (C) Fluorescent DIGE analysis of samples from A and B independent labeled indicates NCA specific band (green) above purified TM (blue) and below AS treated myofibrils (red) (n=3). (D) MS analysis of the same gel region identified both tropomyosin and actin in non-reduced lane but not with DTT treatment (n=2).
Gel shift assay. 10 μg of rat myofibrils/treatment were diluted to 0.5 μg/μl in HEN including 0.1% (w/v) SDS and exposed to a treatment for 20 min at 37° C. Samples were diluted to 0.1 ug/ul in 1×LSD sample buffer, treated with 0, 5 or 100 mM DTT and separated by SDS PAGE. Proteins were silver stained or transferred to nitrocellulose and immunoblotted with primary antibodies for tropomyosin sarcomeric (CH1, Sigma-Aldrich Co., St. Louis, Mo., USA), actin (AC-40, Sigma-Aldrich Co., St. Louis, Mo., USA), myosin light chain 1 (MLM527, Abcam, Cambridge, Mass., USA) or myosin heavy chain (3-48, Abcam, Cambridge, Mass., USA). For some silver stained gel bands of interest in-gel digestion was done following the protocol outlined in Shevchenko et al.. Gel slices of interest were excised from the gels cut into 1 mm^3 pieces. Silver stained gel pieces were destained in 1:1(v/v) 30 mM Potassium ferricyanide and 100 mM Sodium thiosulfate and wash three times with ddH2O. Gel pieces were dehydrated in 100% acetonitrile and reswelled in 10 mM DTT and incubated at 55° C. for 1 hour. After the DTT solution was removed, a solution of 55 mM iodoacetimide was added and gel slices were incubated at room temperature protected from light. Gel slices were then washed 3 times with 50% (v/v) ACN, 25 mM (NH4)HCO3 and then fully dehydrated in 100% ACN and dried in a speed vac. Gel pieces were reswelled in a 12.5 ng/μL trypsin (Promega, Madison Wis. USA) solution containing 25 mM (NH4)HCO3 and incubated at 37° C. for >16 hours. Digested peptides were extracted by addition of 5% (v/v) formic acid and incubation for 15 min followed by addition of an equal volume of 100% ACN and 15 min incubation, this step was repeated and the extracts were combined. […]

In assay [2] the target is T2, MLC1 (Rattus norvegicus, UniProt P02600).
T2 construct: using 10 μg of skeletal or cardiac myofibrils; from tissue; host or cells: skeletal muscle myofibrils
Kind of assay: 2D gel shift western blot of skeletal myofibrils. It counts as biochemical. The conditions noted are these: skeletal samples. An excerpt:
FIG. 6. MLC1 Cys81 necessary for increase in Fmax induced by treatment with HNO donors. (a) Sequence alignment comparing isoforms of rat cardiac (SEQ ID NO:16) and skeletal MLC1 (SEQ ID NO:17) in the region surrounding cardiac Cys81. (b) Steady-state force-[Ca^2+]i relations in control (o) versus NCA-treated (•) from cardiac or skeletal trabeculae indicating loss of increase in maximum force with loss of Cys81 in skeletal isoform with NCA (n=5, each group). (c) 2D Gel shift assay (non-reduced, NR and reduced, DTT) using 10 μg of skeletal or cardiac myofibrils indicating loss of higher molecular weight forms of MLC1 in skeletal HNO treated preparations while maintaining higher molecular weight form of TM (n=3).
Gel shift assay. 10 μg of rat myofibrils/treatment were diluted to 0.5 μg/μl in HEN including 0.1% (w/v) SDS and exposed to a treatment for 20 min at 37° C. Samples were diluted to 0.1 ug/ul in 1×LSD sample buffer, treated with 0, 5 or 100 mM DTT and separated by SDS PAGE. Proteins were silver stained or transferred to nitrocellulose and immunoblotted with primary antibodies for tropomyosin sarcomeric (CH1, Sigma-Aldrich Co., St. Louis, Mo., USA), actin (AC-40, Sigma-Aldrich Co., St. Louis, Mo., USA), myosin light chain 1 (MLM527, Abcam, Cambridge, Mass., USA) or myosin heavy chain (3-48, Abcam, Cambridge, Mass., USA). […]

T1 sequence (P04692 whole entry): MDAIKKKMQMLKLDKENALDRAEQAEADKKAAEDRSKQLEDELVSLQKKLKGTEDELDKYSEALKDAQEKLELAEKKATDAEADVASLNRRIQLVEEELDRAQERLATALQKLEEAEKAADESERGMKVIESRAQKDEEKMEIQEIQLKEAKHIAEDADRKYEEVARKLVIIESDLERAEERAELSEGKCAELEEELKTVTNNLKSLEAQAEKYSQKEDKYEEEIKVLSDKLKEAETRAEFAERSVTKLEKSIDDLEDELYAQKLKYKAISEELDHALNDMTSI
T2 sequence (P02600 whole entry): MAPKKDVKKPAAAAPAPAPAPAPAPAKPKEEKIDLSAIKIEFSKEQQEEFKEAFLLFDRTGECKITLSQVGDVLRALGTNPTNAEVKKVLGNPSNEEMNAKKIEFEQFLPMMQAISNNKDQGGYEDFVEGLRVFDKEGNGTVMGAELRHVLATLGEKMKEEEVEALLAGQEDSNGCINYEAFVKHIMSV

On to `CC(=O)OC1(N=O)CCCCC1` [NCA, 1-nitrosocyclohexylacetate], for which the “tropomyosin molecular weight shift” value in assay [1] is “higher molecular weight species that was specific for NCA treatment”. In assay [2], the “higher molecular weight forms of MLC1” value is “absence of higher molecular weight forms of MLC1”.
